From ChEMBL document CHEMBL1138957, “Discovery and SAR of 2-amino-5-(thioaryl)thiazoles as potent and selective Itk inhibitors” (Bioorg Med Chem Lett, 2006)

Columns and labels:
Jurkat = experiment: Inhibition of IL2 production in Jurkat T cells; assay type: functional, cell-based; conditions: Homo sapiens
Mus musculus [1] = organism: Mus musculus; experiment: Stability in mouse liver microsomes assessed as degradation rate per mg of protein; assay type: ADME
[2] = target: Tyrosine-protein kinase SYK (Homo sapiens, UniProt P43405); experiment: Inhibition of Syk
[3] = Cmax in mice at 20 mg/kg, po; assay type: ADME, organism-based; design: dose 20 mg/kg, route oral; conditions: mouse, in vivo
[4] = Clearance in mice at 10 mg/kg, iv; assay type: ADME, organism-based; design: dose 10 mg/kg, route intravenous; conditions: mouse, in vivo
Mus musculus [5] = experiment: Inhibition of anti CD3-induced IL2 production in mice serum at 50 mg/kg, sc after 1.75 hrs; assay type: functional; conditions: route subcutaneous
[6] = Volume of distribution in mice at 10 mg/kg, iv; assay type: ADME, organism-based; design: dose 10 mg/kg, route intravenous; conditions: mouse, in vivo, read-out: Vss
EL4 = experiment: cells; conditions: Mus musculus
[7] = Half life in mice at 20 mg/kg, po; assay type: ADME, organism-based; design: dose 20 mg/kg, route oral; conditions: mouse, in vivo
[8] = Oral bioavailability in mice at 20 mg/kg, po; assay type: ADME, organism-based; conditions: mouse, in vivo
[9] = Tmax in mice at 20 mg/kg, po; assay type: ADME, organism-based; design: dose 20 mg/kg, route oral; conditions: mouse, in vivo
[10] = Mean residence time in mice at 20 mg/kg, po; assay type: ADME, organism-based; design: dose 20 mg/kg, route oral; conditions: mouse, in vivo
[11] = Mean residence time in mice at 10 mg/kg, iv; assay type: ADME, organism-based; design: dose 10 mg/kg, route intravenous; conditions: mouse, in vivo
Mus musculus [12] = experiment: Inhibition of anti CD3-induced IL2 production in mice serum at 50 mg/kg, sc; assay type: functional; conditions: route subcutaneous
[13] = Half life in mice at 10 mg/kg, iv; assay type: ADME, organism-based; design: dose 10 mg/kg, route intravenous; conditions: mouse, in vivo
[14] = Tmax in mice at 10 mg/kg, iv; assay type: ADME, organism-based; design: dose 10 mg/kg, route intravenous; conditions: mouse, in vivo
[15] = target: T1, Tyrosine-protein kinase ITK/TSK (Homo sapiens, UniProt Q08881); experiment: Inhibition of Itk
T1 sequence (Q08881 whole entry): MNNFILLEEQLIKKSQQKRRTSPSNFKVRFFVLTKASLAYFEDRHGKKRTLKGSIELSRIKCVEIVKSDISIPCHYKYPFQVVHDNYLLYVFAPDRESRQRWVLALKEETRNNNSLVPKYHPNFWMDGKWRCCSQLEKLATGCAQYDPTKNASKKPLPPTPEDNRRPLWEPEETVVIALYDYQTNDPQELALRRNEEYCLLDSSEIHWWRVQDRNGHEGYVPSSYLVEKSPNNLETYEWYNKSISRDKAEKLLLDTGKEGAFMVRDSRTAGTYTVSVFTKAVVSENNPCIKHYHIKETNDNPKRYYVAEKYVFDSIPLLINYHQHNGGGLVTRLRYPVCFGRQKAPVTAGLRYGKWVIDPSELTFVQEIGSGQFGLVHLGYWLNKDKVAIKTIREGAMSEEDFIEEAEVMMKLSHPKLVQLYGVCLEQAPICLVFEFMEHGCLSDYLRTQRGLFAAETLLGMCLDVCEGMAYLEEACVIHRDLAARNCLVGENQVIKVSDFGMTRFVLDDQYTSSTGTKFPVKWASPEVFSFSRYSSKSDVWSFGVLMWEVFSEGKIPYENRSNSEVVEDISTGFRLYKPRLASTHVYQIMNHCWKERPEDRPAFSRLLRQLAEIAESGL

SMILES | IC50 (Jurkat) | Stability (Mus musculus [1]; mouse) | other results
CC(=O)N1CCN(C(=O)c2cccc(CSc3cnc(NC(=O)c4ccc(N(C)C)cc4)s3)c2)CC1 | 22000 nM | – | –
COc1cc(C)c(Sc2cnc(NC(=O)c3ccc(CNC(C)C(C)(C)C)cc3)s2)cc1C(=O)N1CCN(C(C)=O)CC1 (stereo not drawn) | – | – | IC50 [2]: > 50000 nM; Cmax [3]: 69 nM; clearance [4]: 116 mL/min/kg; Activity (Mus musculus [5]): 1.89 µM; Vd [6]: 7 L/kg; IC50 (EL4): 70 nM; half-life [7]: 1.4 h; bioavailability [8]: 6.4%; Tmax [9]: 1 h; MRT [10]: 3.1 h; IC50 (Protein kinase C (PKC)): 24000 nM; MRT [11]: 1 h; inhibition in vivo at 50 mg/kg (Mus musculus [12]): 50%; half-life [13]: 1.3 h; Tmax [14]: 3 min
O=C(O)C1CCN(C(=O)c2cc(Sc3cnc(Nc4cccc(Br)n4)s3)ccc2O)CC1 | > 50000 nM | < 0.1 nmol/min/mg | –
CC(=O)N1CCN(C(=O)c2cccc(Sc3cnc(Nc4cccnc4)s3)c2)CC1 | – | – | IC50 [15]: > 50000 nM
CC(=O)N1CCN(C(=O)c2cccc(Sc3cnc(NC(=O)c4ccc(N(C)C)cc4)s3)c2C)CC1 | – | – | IC50 [15]: > 25000 nM
CS(=O)(=O)NC(=O)C1CCCN(C(=O)c2cc(Sc3cnc(Nc4cccc(Br)n4)s3)ccc2O)C1 (stereo not drawn) | > 10000 nM | – | Stability (Mus musculus [1]): < 0.1 nmol/min
O=C(O)C1CCCN(C(=O)c2cc(Sc3cnc(Nc4cccc(Br)n4)s3)ccc2O)C1 (stereo not drawn) | > 50000 nM | < 0.1 nmol/min/mg | –
CC(=O)N1CCN(C(=O)c2cc(Sc3cnc(Nc4ccccn4)s3)ccc2O)CC1 | 2180 nM | – | –
CNCc1ccc(C(=O)Nc2ncc(Sc3cc(C(=O)N4CCOCC4)c(OC)cc3C)s2)[nH]1 | 260 nM | 0.1 nmol/min/mg | –
CN(CC(=O)O)C(=O)c1cc(Sc2cnc(Nc3cccc(Br)n3)s2)ccc1O | > 10000 nM | < 0.1 nmol/min/mg | –
CC(=O)N1CCN(C(=O)c2cccc(Sc3cnc(Nc4ccccn4)s3)c2)CC1 | 24000 nM | – | –
CC(=O)N1CCN(C(=O)c2cc(CSc3cnc(NC(=O)c4ccc(CNC(C)C(C)(C)C)cc4)s3)cc(C)c2C)CC1 (stereo not drawn) | 700 nM | – | –

Continued, in another order:

IC50 (Jurkat) | Stability (Mus musculus [1]; mouse) | SMILES | other results
1000 nM | > 0.3 nmol/min/mg | CCN1CCN(C(=O)c2cc(Sc3cnc(NC(=O)C4CC4)s3)c(C)cc2OC)CC1 | –
690 nM | > 0.3 nmol/min/mg | COc1cc(C)c(Sc2cnc(NC(=O)C3CC3)s2)cc1C(=O)N1CCN(C(C)=O)CC1 | –
280 nM | – | COc1cc(C)c(Sc2cnc(NC(=O)c3ccc(N(C)C)cc3)s2)cc1C(=O)N1CCN(C(C)=O)CC1 | –
370 nM | > 0.3 nmol/min/mg | CC(=O)N1CCN(C(=O)c2cc(Sc3cnc(Nc4cccc(Br)n4)s3)ccc2O)CC1 | –
210 nM | 0.1 nmol/min/mg | COc1cc(C)c(Sc2cnc(NC(=O)C3CC3)s2)cc1C(=O)N1CCN(C(=O)CN(C)C)CC1 | –
460 nM | – | CC(=O)N1CCN(C(=O)c2cc(Sc3cnc(Nc4cc(C)cc(C)n4)s3)ccc2O)CC1 | –
230 nM | – | COc1cc(C)c(Sc2cnc(Nc3cc(C)cc(C)n3)s2)cc1C(=O)N1CCN(C(C)=O)CC1 | –
420 nM | – | COCc1ccc(C(=O)Nc2ncc(Sc3cc(C(=O)N4CCN(C(C)=O)CC4)c(OC)cc3C)s2)cc1 | –
25300 nM | < 0.1 nmol/min/mg | COc1cc(C)c(Sc2cnc(NC(=O)C3CC3C(=O)O)s2)cc1C(=O)N1CCN(C(C)=O)CC1 (stereo not drawn) | –
360 nM | – | COc1cc(C)c(Sc2cnc(NC(=O)c3ccc(OC(C)C)cc3)s2)cc1C(=O)N1CCN(C(C)=O)CC1 | –
250 nM | – | COc1cc(C)c(Sc2cnc(NC(=O)c3ccc[nH]3)s2)cc1C(=O)N1CCN(C(C)=O)CC1 | –
3400 nM | – | CCNCc1ccc(C(=O)Nc2ncc(Sc3cc(C(=O)N4CCN(C(C)=O)CC4)c(OC)cc3C)s2)cc1 | –
